In PMC5491917, “In vitro and in vivo anticancer studies of 2'-hydroxy chalcone derivatives exhibit apoptosis in colon cancer cells by HDAC inhibition and cell cycle arrest” (EXCLI Journal, 2017):
Like-named read-outs stand apart in the source and are kept apart here.

Columns and labels:
HCT116 cells [1] = test: MTT cytotoxicity assay on HCT116; assay type: cell-based; conditions: Homo sapiens
Method: (§1) Human colorectal carcinoma (HCT116) and African green monkey kidney epithelial cells (VERO) were procured from the National Centre for Cell Science, Pune, MH, India. The cells were maintained in Dulbecco's Modified Eagle's Medium (DMEM) (Sigma-Aldrich Co. LLC, ST. Louis, Mo, USA) supplemented with 10 % Fetal Bovine Serum (FBS) (HiMedia Laboratories, Mumbai, India) and 1 × Penicillin/Streptomycin at 37 °C in CO2 incubator (NU-5501 E/G, NuAire Inc., Plymoth, MN, USA) in humidified atmosphere of 5 % CO2 and 95 % air. The cells were maintained by routine sub-culturing in 25 cm^2 tissue culture flasks.
(§2) Cytotoxic potential of the test compounds were assessed using MTT assay (Kumar et al., 2016[9]). In brief, HCT116 and Vero cells were harvested from confluent flask and seeded (5 × 10^4 cells/well) in 96 well plates. After 24 h of incubation, the cells were exposed to different concentration of the test compounds for 48 h. Further, 50 µl of MTT reagent (HiMedia Laboratories, Mumbai, India) (2 mg/ml in sterile PBS) was added into each well after 48 h and incubated for 3 more h. The formazan crystals formed were solubilized using 100 % DMSO and the optical density was measured at 540 nm using micro plate reader (ELx800, BioTek Instruments Inc., Winooski, VT, USA).

Vero cells = test: MTT cytotoxicity assay on Vero; assay type: cell-based, African green monkey; conditions: Chlorocebus sabaeus, 48 h exposure
Method: as §1, §2

[2] = tested on: histone deacetylase (HDAC) enzyme; test: Whole cell HDAC enzyme assay; assay type: cell-based, human; conditions: HCT116 cells
Method: HCT116 cells were harvested and seeded in 96 well sterile, black well plates at 2 × 10^4 cells/well and incubated overnight. Further, the cells were treated with different concentration of the test compounds for a period of 18 h. Then, 15 mM Boc-Lys(Ac)-AMC substrate (Sigma Aldrich # SCP0168) was added and incubated for 1 h. The reaction was terminated by the addition of 50 µL of stop solution (trypsin 2 mg/ml, 1 % NP40, […]) in HDAC assay buffer (25 mM Tris-HCl (pH 8.0), 137 mM NaCl, 2.7 mM KCl, 1 mM MgCl2). The reaction was then allowed to proceed for 15 min at 37 °C after which, the fluorescence was measured at 360 nm excitation and 460 nm emission using fluorescence micro plate reader (FLx800, BioTek Instruments Inc., Winooski, VT, USA) (Reddy et al., 2015[18]).

HCT116 cells [3] = test: Acridine orange/Ethidium bromide (AO/EB) staining; assay type: cell-based, human; conditions: HCT116, 48 h, mean ± SEM of 100 cells
Method: AO/EB dual staining was performed in order to determine the apoptosis inducing potential of the selected test compounds in HCT116 cell line with few modifications (Kumar et al., 2016[9]). In brief, 5 × 10^5 cells were seeded in 6 wells plate containing 2 ml of medium and incubated for 24 h. After 24 h, cells were treated with the test compounds and incubated for 48 h. After 48 h of incubation, the wells were washed with phosphate buffer saline (PBS) and cells were fixed with ice cold ethanol (70 %) for 30 min. Ethanol was then removed and cells were washed again with PBS followed by the addition of 200 µl of AO/EB (20/30 µg/ml) stain in each well. The plate was later kept in the dark for 20 min. The excess stain was further washed thrice with PBS and observed for their fluorescence under a fluorescent microscope (Eclipse TS100-F, Nikon Instruments Inc., Melville, NY, USA).

HCT116 cells [4] = test: Annexin V assay (Muse Cell Analyzer); assay type: cell-based, human; conditions: HCT116, 48 h; 5-FU 20 μM, C1 25 μM, C2 70 μM, C3 70 μM
Method: Apoptosis determination by Annexin V staining was carried out using Muse Cell Analyzer with the kit provided by the manufacturer Merck Millipore. In brief, 1 × 10^6 cells were seeded in 60 mm tissue culture dish and after overnight adherence test compounds were added and incubated. After 48 h the cells were detached by trypsinization, centrifuged and resuspended. 100 µl of cell suspension was added with 100 µl of Annexin V reagent and incubated for 20 min at room temperature following which the cells were analyzed for apoptosis.

[5] = tested on: DMH induced colorectal carcinoma; test: DMH (1,2-dimethyl hydrazine) induced colon cancer in Wistar rats; assay type: in vivo; conditions: test compounds 100 mg/kg p.o., 5-FU 10 mg/kg i.p., 21 days; for TNF-α level in colon homogenate: ELISA, DMH control 20.2 ± 0.8, normal control 0.8 ± 0.1; for No. of ACF/5 cm^2: colon tissue, DMH control 81.6 ± 1.4; for No. of ACF/5 cm^2 / No. of adenocarcinoma: mean ± SEM, n=6; for No. of adenocarcinoma: entire colon, DMH control 15 ± 1.2
Method: Test compound: Three test compounds, namely C1, C2 & C3 were suspended in 0.25 % sodium carboxy methyl cellulose (CMC) and were administered orally (p.o) with a dosing volume of 10 ml/kg.
Standard drug: 5-Fluorouracil (5-FU) was used as standard. It was procured in the form of injection and administered intraperitoneally (i.p) with a dosing volume of 10 ml/kg.
Induction of colon cancer was achieved using DMH according to a previously described procedure with few modifications (Perše and Cerar, 2005[15]). DMH at a dose of 30 mg/kg was administered i.p once a week for 20 weeks. The incidence of aberrant crypt foci (ACFs) and adenocarcinoma were confirmed by sacrificing a few of the animals after 20 weeks confirming the induction of colon cancer in experimental animals. Finally, the animals were randomized into five experimental groups based on their body weight.
Group 1 (normal control): Animals (n=6) were administered 0.25 % CMC in water p.o.
Group 2 (DMH control): Animals (n=6) were administered DMH
Group 3 (standard drug): Animals (n=6) received 5-FU 10 mg/kg i.p. for 21 days of study period
Group 4 (C1): Animals (n=6) received C1 at 100 mg/kg p.o for 21 days
Group 5 (C2): Animals (n=6) received C2 at 100 mg/kg p.o. for 21 days.
Group 6 (C3): Animals (n=6) received C3 at 100 mg/kg p.o. for 21 days.
The distal part of the colon, which was removed from the experimental animals after the study period was cut open and placed flat on a filter paper and fixed with 10 % buffered formalin for 12 h. Further, it was stained with 0.1 % methylene blue in PBS for 5 min. Specimens were later observed under microscope for ACF formation and were calculated as the number of counts/5 cm^2 in colon tissue. The entire colon was considered to study the incidence of adenocarcinoma. The growth was critically observed and the count and size were noted from each animal.
The levels of TNF-α were estimated in the colon of experimental animals, for which 10 % homogenate of colon tissue was prepared in tissue lysis buffer. The homogenate was centrifuged and the supernatant was collected to measure TNF-α levels using commercially available ELISA kits of rat TNF-α (# KRC3011, Invitrogen).
Length of the isolated colon was measured in centimeters and weight was measured in g. The colon length/weight (L/W) ratio was then calculated. Isolated spleen, kidney and heart of the experimental animals were also weighed in g and respective index was calculated.
Histopathology was carried out according to the described procedure (Reddy et al., 2015[18]). The stained slides were then analyzed under a microscope for any anatomical changes.
All the values were expressed as mean ± SEM of 6 animals. Data were analyzed using one-way ANOVA followed by Tukey's multiple comparison tests using Prism 5.03 (Graph Pad Software Inc., La Jolla, CA, USA). Values of p < 0.05 were considered to be significant.

HCT116 cells [6] = test: Cell cycle analysis (propidium iodide, flow cytometry); assay type: cell-based, human; conditions: HCT116, 48 h treatment; for Cells in G2/M phase (M3): normal control 18.2 %
Method: The ability of the test compounds to arrest any phase of the cell cycle was determined using the described procedure (Reddy et al., 2015[18]). In this method, HCT116 cells were harvested and seeded at a density of 1 × 10^6 cell in 60 mm petri plate and incubated for 24 h. After 24 h cells were treated with test compounds for 48 h. Then the cells were washed with PBS, trypsinized and centrifuged. The cell pellets were later fixed in 70 % ice cold ethanol and stored at -20 °C for 24 h. After fixing, the pellet was dislodged in PBS and stained with propidium iodide solution. The cells were then analyzed using Accuri C6 flow cytometer with the threshold levels adjusted to remove the debris (BD Biosciences, San Jose, CA, USA) and data analysis were performed using BD Accuri™ C6 software.

[7] = 18 h treatment, mean ± SEM, triplicate, read-out: IC50 whole cell HDAC enzyme inhibition
[8] = read-out: IC50 inhibition of HDAC (unit inferred)
[9] = HCT-116, 48 h exposure, read-out: IC50 Value HCT116
[10] = HCT-116, 48 h of treatment, read-out: IC50 value on HCT116 cells

Row | Structure (SMILES) | IC50 (HCT116 cells [1]; HCT-116, 48 h, 48 h exposure, read-out: IC50 Value HCT116) | IC50 (Vero cells) | IC50 [2, 7] | IC50 [2, 8] | IC50 (HCT116 cells [1]; [9]) | % apoptotic cells (AO/EB staining) (HCT116 cells [3]) | Early Apop. (Annexin V) (HCT116 cells [4]) | Total apoptotic cells (Annexin V) (HCT116 cells [4]) | TNF-α level in colon homogenate [5] | No. of ACF/5 cm^2 [5] | No. of adenocarcinoma [5] | Cells in G2/M phase (M3) (HCT116 cells [6]) | IC50 (HCT116 cells [1]; [10]) | Cells in S phase (M2) (HCT116 cells [6]; normal control 9.5 %)
1 | CN(C)c1ccc(/C=C/C(=O)c2ccccc2O)cc1 [C4, 3-(4-Dimethylamino-phenyl)-1-(2-hydroxy-phenyl)-propenone] | > 500 µM | > 500 µM | 470 ± 11 µM | < 500 µM |  |  |  |  |  |  |  |  |  | 
2 | O=C(O)c1ccc(C=CC(=O)c2c(O)cccc2O)cc1 [C6, 4-[3-(2,6-Dihydroxy-phenyl)-3-oxo-propenyl]-benzoic acid] |  | > 500 µM | 826 ± 58.1 µM |  | > 500 µM |  |  |  |  |  |  |  |  | 
3 | O=c1[nH]cc(F)c(=O)[nH]1 [5-FU, 5-Fluorouracil, reference compound] |  |  |  |  |  | 45 ± 0.87% | 15.86% | 38.08 % of total cells | 16.09 ± 1.9 | 42.3 ± 1.4 /5 cm^2 | 7 ± 0.5 |  |  | 
4 | O=C(CCCCCCC(=O)Nc1ccccc1)NO [SAHA, reference compound] |  |  | 3.6 ± 0.2 µM |  |  |  |  |  |  |  |  |  |  | 
5 | Cc1ccc(/C=C/C(=O)c2ccccc2O)cc1 [C1, 1-(2-Hydroxy-phenyl)-3-p-tolyl-propenone] |  | 26.3 µM | 105 µM | < 500 µM |  | 42.4 ± 2.25% | 5.85% | 37.70 % of total cells | 6.18 ± 2.5 | 54.0 ± 0.5 /5 cm^2 | 10 ± 0.8 | 25% |  | 
6 | O=C(/C=C/c1ccc(O)cc1)c1ccccc1O [C2, 3-(4-Hydroxy-phenyl)-1-(2-hydroxy-phenyl)-propenone] |  | 88.3 µM | 394 ± 12.9 µM | < 500 µM | 81.4 µM | 40 ± 2.5% | 18% | 36.60 % of total cells |  | 60.0 ± 1.1 /5 cm^2 |  | 19.5% | < 200 µM | 
7 | O=C(O)c1ccc(C=CC(=O)c2ccccc2O)cc1 [C3, 4-[3-(2-Hydroxy-phenyl)-3-oxo-propenyl]-benzoic acid] |  | 178 µM | 929 ± 56.6 µM |  | 117 µM | 38.7 ± 0.94% |  | 31.80 % of total cells |  | 73.6 ± 0.8 /5 cm^2 |  |  | < 200 µM | 12%
8 | CN(C)c1ccc(/C=C/C(=O)c2ccc(O)cc2O)cc1 [C5] |  |  | 160 ± 15.5 µM | < 500 µM |  |  |  |  |  |  |  |  |  | 
